Experimental findings from patent US8703767B2, “Substituted N-(3-(pyrimidin-4-yl)phenyl)acrylamide analogs as tyrosine receptor kinase BTK inhibitors” (University of Utah Research Foundation, priority 2011, dated 2014) are described below.

The target of series [1] is wild-type EGFR (ErbB1) (Homo sapiens (Human), UniProt P00533). As to the kind of experiment: LanthaScreen Eu Kinase Binding Assay, wild-type EGFR. The settings on record: tracer displacement. The method, then:
(§1) Based on the results obtained in the foregoing experiment, representative compounds (N-(3-(5-chloro-2-((4-morpholinophenyl)amino)pyrimidin-4-yl)phenyl)acrylamide and N-(3-(6-((4-morpholinophenyl)amino)-1H-pyrazolo[3,4-d]pyrimidin-4-yl)phenyl)acrylamide) were assayed against wild-type and a mutant form (T790M) of EGFR. The compound activity against these kinases was determined using LanthaScreen™ Eu Kinase Bindng Assay (Invitrogen division of Life Technologies, Inc., Grand Island, N.Y.). The assay measures the activity of a compound to bind and displace a proprietary, Alexa Fluor® 647-labeled, ATP-competitive kinase inhibitor scaffold (kinase tracer) to EGFR.
Background: TR-FRET usually uses a lanthanide donor and a delayed reading to cut background.

For series [2], the system named is OPM2 cells overexpressing BTK. As to the kind of experiment: Cell viability assay in OPM2 cells overexpressing BTK. It is filed as cell-based. The following applies: Homo sapiens, OPM-2, presence of overexpressed BTK. The method, then: (§2) The cells were grown as described above, and for the assay cells were freshly harvested and then were plated in […] of appropriate media (as described above) at a density of 1000 cells per well in standard solid white-walled 384-well plates. Cells were allowed to attach by incubation overnight at 37° C. and 5% CO2. Test compounds were diluted to 10× concentrations in the appropriate media for the cell used (containing 3% DMSO) and […] of these dilutions were appropriate wells containing the cells. Test compounds were typically tested in triplicate (i.e. a given concentration of compound was assayed in triplicate wells). The plates containing the drug-treated cells and appropriate controls were incubated for 96 hours. At the end of the incubation, […] of ATP-lite (PerkinElmer, Inc., Waltham, Mass.) reagent were added to each well and luminescence signal was measured on an EnVision microplate reader.
(§3) The compounds were assessed in a cell-viability assay in OPM2 cells that either expressed endogenous levels of BTK or overexpressed BTK from an expression construct. […] Cell viability or proliferation was determined using the ATPLite Luminescence Assay (PerkinElmer, Inc., Waltham, Mass.); a decrease in luminescence activity correlates with a decrease in cell viability or proliferation.

The nature of series [3]: Pharmacokinetic and bone marrow distribution study. It is filed as in vivo. The settings on record: CD1 mice, 5 mg/kg iv. As to the method: To determine the ability of a disclosed compound, N-(3-(5-chloro-2-((4-morpholinophenyl)amino)pyrimidin-4-yl)phenyl)acrylamide, to partition to the bone, a pharmacokinetic study in mice was carried out and coupled with a bone marrow distribution study (see FIG. 18). Briefly, CD1 mice were dosed intravenously (“iv”) with 5 mg/kg of the test compound and three animals per time point (5 min to 8 hrs) were sacrificed. Blood (plasma) and bone marrow tissue (femur) were collected from each animal and analyzed by LC/MS for standard PK parameters. […] The baseline distribution to the bone marrow of the compound was also determined.

The subject of series [4] is Tec family of kinase, as well as EGFR and ErbB4. Kind of series: Kinase profiling against a panel of 40 protein kinases. It is filed as biochemical. The following applies: 200 nM of test compound, ATP at Km apparent. As to the method: The specificity of kinase inhibition was assessed with a representative compound, N-(3-(5-chloro-2-((4-morpholinophenyl)amino)pyrimidin-4-yl)phenyl)acrylamide, by determining the activity of this test compound against a panel of protein kinases. Kinase profiling was performed against a focus panel of kinases relevant to BTK and the Tec family of protein kinases. […] The results from this screen confirmed good activity against the Tec family of kinase, as well as EGFR and ErbB4. These later two kinases are known to have a cysteine residue in a position suitable for reaction with the Michaels acceptor of the disclosed compounds.

In series [5] the test system is OPM2 cells. Kind of series: Cell viability assay in OPM2 cells with endogenous levels of BTK. The format is cell-based. The settings on record: Homo sapiens, OPM-2, absence of overexpressed BTK. The method, then:
as §2, §3

Series [6] addresses mutant form of EGFR (T790M) (Homo sapiens (Human), UniProt P00533, T790M). Kind of series: LanthaScreen Eu Kinase Binding Assay, EGFR T790M. The settings on record: tracer displacement. The method, then:
as §1

Series [7] concerns BxPC-3. As to the kind of experiment: Cell viability assay (ATP-lite), BxPC-3. The format is cell-based. The settings on record: Homo sapiens, 96 hours. The method, then: (§4) All cell lines were cultured in RPMI-1640 media supplemented with 10% fetal bovine serum (“FBS”) and 1% penicillin/streptomycin (100 IU/mL penicillin and 100 μg/mL streptomycin) at 37° C. and 5% CO2. ATCC is the American Type Culture Collection (Manassas, Va.), and DSMZ is the Deutsche Sammlung von Mikroorganismen and Zellkulturen GmbH (German Collection of Microorganims and Cell Cultures; Braunschweig, Germany). The cell lines typically used in these studies are indicated below in Table II.
(§5) The cells were grown as described above, and for the assay cells were freshly harvested and then were plated in […] of appropriate media (as described above) at a density of 1000 cells per well in standard solid white-walled 384-well plates. Cells were allowed to attach by incubation overnight at 37° C. and 5% CO2. […] At the end of the incubation, […] of ATP-lite (PerkinElmer, Inc., Waltham, Mass.) reagent were added to each well and luminescence signal was measured on an EnVision microplate reader.
(§6) IC50 values are determined using GraphPad Prism 5 software. […]
(§7) The ability of compounds to inhibit the viability of cultured cells was determined using the cell viability assay described above. […] IC50 values were determined as described above. If an IC50 is indicated as “n.d.”, it was not determined in the indicated cell line.

The target in series [8] is BTK kinase (Homo sapiens (Human), UniProt Q06187). As to the kind of experiment: BTK kinase assay: time resolved-FRET (HTRF) assay. It is filed as biochemical. The settings on record: 10 nM BTK, 60 μM ATP, 1 μM substrate, 60 min. As to the method: The secondary assay was a time resolved-FRET kinase assay. Test compound are diluted to desired concentrations in kinase reaction buffer and briefly incubated with BTK kinase (as described above; Invitrogen). The reaction is initiated by the addition of ATP and enzyme substrate, HTRF® KinEASE™-TK Substrate-biotin (Cisbio US, Bedford, Mass.). The composition of the reaction (10 μl) was: 1% v/v DMSO, 10 nM BTK, 60 μM ATP, and 1 μM substrate. After incubation at room temperature for 60 min, the enzyme reaction is stopped by EDTA-containing buffer, which also contains europium-labeled (Eu^3+-Cryptate) anti-phosphotyrosine antibody (Cisbio) and Streptavidin-XL665 (Cisbio). The europium-labeled antibody generates a time-resolved FRET signal with the Stepavidin-XL665, which binds to the biotinylated TK substrate through the streptavidin conjugate when the substrate is phosphorylated. After one hour incubation at room temperature, fluorescence was measured with excitation of 320 nm and dual emission of 615 and 665 nm on an EnVision microplate reader.
Sequence of BTK kinase (Q06187 whole entry): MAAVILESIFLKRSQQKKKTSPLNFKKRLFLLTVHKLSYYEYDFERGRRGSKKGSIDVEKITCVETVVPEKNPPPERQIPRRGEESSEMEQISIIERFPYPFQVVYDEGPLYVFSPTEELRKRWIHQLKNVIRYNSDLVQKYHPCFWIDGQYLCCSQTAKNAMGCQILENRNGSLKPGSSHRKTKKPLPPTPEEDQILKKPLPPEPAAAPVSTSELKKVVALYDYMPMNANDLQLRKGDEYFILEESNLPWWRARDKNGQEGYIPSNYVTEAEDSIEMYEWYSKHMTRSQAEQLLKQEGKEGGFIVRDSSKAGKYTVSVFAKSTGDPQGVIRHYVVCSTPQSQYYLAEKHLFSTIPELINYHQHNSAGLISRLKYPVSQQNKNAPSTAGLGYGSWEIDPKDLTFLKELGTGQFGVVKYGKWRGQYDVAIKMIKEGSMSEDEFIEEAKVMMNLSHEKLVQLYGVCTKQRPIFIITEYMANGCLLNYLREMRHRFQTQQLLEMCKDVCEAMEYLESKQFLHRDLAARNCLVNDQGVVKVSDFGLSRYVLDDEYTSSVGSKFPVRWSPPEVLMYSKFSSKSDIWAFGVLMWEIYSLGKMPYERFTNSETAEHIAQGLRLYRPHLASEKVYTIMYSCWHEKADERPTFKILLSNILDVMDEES
(§8) IC50 values are determined using GraphPad Prism 5 software. The data were entered as an X-Y plot into the software as percent inhibition for each concentration of the drug. The concentration values of the drug were log transformed and the nonlinear regression was carried out using the “sigmoidal dose-response (variable slope)” option within the GraphPad software to model the data and calculate IC50 values. The IC50 values reported are the concentration of drug at which 50% inhibition was reached.

Series [9] has as its target recombinant full-length human BTK kinase (Homo sapiens (Human), UniProt Q06187). Kind of series: BTK kinase assay: ADP generation assay. The format is biochemical. The following applies: 60 nM BTK, 1.6 μM ATP, 20 μM MBP substrate, 60 min. As to the method:
Test compounds were diluted to desired concentrations in kinase reaction buffer and briefly incubated with recombinant full-length human BTK kinase with a (His)6 tag (81.3 kDa; Invitrogen Corporation, Carlsbad, Calif.). The assay as described is based on volumes used in a standard 384 well format using solid, white-wall plates. The reaction was subsequently initiated by the addition of ATP and myelin basic protein (MBP) substrate (Millipore Corporation, Waltham, Mass.). Composition of the assay reaction mixture ([…]) was: 5% v/v DMSO, 60 nM BTK, 1.6 μM ATP, and 20 μM MBP substrate. After incubation at room temperature for 60 min, […] (Promega Corporation, Madison, Wis.) was added to each well and incubated for an additional 40 minutes. The reagent stopped the kinase reaction and depleted the unconsumed ATP. Kinase Detection reagent ([…]; Promega Corporation) was then added to each well. The Kinase Detection reagent comprises reagents to convert ADP to ATP and provide luciferase and luciferin to detect ATP. Luminescence was measured on an EnVision microplate reader (PerkinElmer). The amount of luminescence from each reaction is directly correlated with BTK kinase activity. Percent inhibition and IC50 values were calculated by comparing enzyme activity in drug-treated wells to the appropriate controls.
as §8

The test system of series [10] is Ramos RA-1. As to the kind of experiment: Cell viability assay (ATP-lite), Ramos RA-1. It is filed as cell-based. The settings on record: Homo sapiens, 96 hours. As to the method:
as §4, §2, §8
The ability of compounds to inhibit the viability of cultured cells was determined using the cell viability assay described above. Activity data for representative compounds is shown below in Table III below for the compounds tested using the indicated cell lines (Ramos RA-1, GRANTA-519, and BxPC-3). IC50 values were determined as described above. If an IC50 is indicated as “n.d.”, it was not determined in the indicated cell line.

For series [11], the system named is GRANTA-519. Kind of series: Cell viability assay (ATP-lite), GRANTA-519. It is filed as cell-based. The following applies: Homo sapiens, 96 hours. As to the method:
as §4, §5, §6, §7

Sequence of recombinant full-length human BTK kinase (Q06187 whole entry): as above
Sequence of wild-type EGFR (ErbB1) (P00533 25-1210): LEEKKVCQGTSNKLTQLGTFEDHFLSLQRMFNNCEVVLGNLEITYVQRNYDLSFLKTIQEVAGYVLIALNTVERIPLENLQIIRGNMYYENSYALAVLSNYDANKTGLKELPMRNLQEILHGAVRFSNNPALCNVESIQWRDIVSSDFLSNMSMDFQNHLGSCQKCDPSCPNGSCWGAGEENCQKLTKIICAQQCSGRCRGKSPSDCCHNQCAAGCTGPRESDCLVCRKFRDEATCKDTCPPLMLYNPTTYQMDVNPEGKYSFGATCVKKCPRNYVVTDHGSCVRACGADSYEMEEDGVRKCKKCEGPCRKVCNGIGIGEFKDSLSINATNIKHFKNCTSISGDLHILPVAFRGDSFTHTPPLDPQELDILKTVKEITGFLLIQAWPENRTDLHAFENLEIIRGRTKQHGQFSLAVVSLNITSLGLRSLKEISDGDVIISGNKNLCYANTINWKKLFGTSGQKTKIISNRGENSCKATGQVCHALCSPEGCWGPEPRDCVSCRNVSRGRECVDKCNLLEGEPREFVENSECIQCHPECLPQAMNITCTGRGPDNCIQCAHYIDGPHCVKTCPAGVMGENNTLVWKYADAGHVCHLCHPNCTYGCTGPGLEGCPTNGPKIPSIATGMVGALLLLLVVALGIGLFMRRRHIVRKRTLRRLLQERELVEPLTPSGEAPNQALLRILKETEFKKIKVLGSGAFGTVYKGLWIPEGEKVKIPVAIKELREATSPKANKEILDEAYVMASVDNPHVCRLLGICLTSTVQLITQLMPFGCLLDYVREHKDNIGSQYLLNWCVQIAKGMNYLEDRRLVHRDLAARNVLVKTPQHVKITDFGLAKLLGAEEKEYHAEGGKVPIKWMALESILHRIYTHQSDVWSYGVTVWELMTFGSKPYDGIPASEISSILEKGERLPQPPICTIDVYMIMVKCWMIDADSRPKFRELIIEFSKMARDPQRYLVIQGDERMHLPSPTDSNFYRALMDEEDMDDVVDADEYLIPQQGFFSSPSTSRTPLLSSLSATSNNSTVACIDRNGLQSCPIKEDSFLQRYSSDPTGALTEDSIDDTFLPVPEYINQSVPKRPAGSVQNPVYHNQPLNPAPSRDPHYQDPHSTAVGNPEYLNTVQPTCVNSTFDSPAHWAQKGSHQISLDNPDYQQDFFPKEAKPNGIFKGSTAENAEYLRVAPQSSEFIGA
Sequence of mutant form of EGFR (T790M) (P00533 25-1210 T790M): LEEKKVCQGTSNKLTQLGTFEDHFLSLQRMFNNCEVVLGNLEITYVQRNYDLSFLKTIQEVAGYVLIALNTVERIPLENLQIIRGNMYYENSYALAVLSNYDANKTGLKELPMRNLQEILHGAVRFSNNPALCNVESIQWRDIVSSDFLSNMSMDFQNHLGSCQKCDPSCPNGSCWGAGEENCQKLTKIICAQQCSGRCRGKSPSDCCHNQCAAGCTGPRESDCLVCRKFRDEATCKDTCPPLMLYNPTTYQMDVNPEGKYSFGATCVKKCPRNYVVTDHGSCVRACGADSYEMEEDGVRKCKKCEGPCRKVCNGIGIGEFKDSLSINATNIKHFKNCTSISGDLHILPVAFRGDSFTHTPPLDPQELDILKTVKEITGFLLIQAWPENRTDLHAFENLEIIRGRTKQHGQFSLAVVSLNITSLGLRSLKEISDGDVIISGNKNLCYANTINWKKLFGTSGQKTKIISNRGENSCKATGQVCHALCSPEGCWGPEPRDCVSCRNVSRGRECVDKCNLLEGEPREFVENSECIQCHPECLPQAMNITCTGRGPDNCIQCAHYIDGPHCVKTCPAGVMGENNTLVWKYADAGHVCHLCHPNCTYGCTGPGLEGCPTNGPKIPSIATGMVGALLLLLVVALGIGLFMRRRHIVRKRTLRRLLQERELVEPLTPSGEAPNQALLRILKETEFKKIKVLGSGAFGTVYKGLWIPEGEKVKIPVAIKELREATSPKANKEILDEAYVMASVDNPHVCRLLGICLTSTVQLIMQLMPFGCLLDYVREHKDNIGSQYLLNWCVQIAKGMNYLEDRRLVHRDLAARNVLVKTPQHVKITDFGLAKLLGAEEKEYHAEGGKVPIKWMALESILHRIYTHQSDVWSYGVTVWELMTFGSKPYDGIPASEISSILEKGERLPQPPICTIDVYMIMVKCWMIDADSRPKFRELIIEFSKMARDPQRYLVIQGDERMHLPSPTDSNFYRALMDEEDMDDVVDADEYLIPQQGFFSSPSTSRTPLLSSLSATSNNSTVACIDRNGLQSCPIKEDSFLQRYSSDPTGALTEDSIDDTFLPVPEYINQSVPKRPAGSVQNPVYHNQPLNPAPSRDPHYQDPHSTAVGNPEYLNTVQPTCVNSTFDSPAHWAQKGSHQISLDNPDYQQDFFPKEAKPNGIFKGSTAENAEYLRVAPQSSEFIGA

For the molecule `C=CC(=O)Nc1cccc(-c2nc(Nc3ccc(N4CCOCC4)cc3)ncc2Cl)c1` [N-(3-(5-chloro-2-((4-morpholinophenyl)amino)pyrimidin-4-yl)phenyl)acrylamide], in [1], the IC50 is 253 nM. The IC50 in [2] is about 586 nM. For the same molecule, in series [3], the “dwell time, bone marrow compared to plasma” value is listed as “higher in the bone marrow compared to plasma”; the plasma concentrations entry is “high plasma concentrations”; the “time after which compound cleared in the elimination phase” value is over 10 min. Besides, in series [3] (mouse, bone marrow (femur) versus plasma, read-out: concentration in bone marrow compartment compared to plasma levels (fold less)), the fold lower concentration in bone marrow than in plasma was about 50. The same molecule had a half-life in series [3] (mouse, plasma) of about 45 min. For the same molecule, the “percent inhibition in kinase profiling” value in series [4] was “good activity”. The same molecule yielded an IC50 in series [5] of about 5050 nM.
In the case of `C=CC(=O)Nc1cccc(-c2nc(Nc3ccc(N4CCOCC4)cc3)nc3[nH]ncc23)c1` [N-(3-(6-((4-morpholinophenyl)amino)-1H-pyrazolo[3,4-d]pyrimidin-4-yl)phenyl)acrylamide], the half-inhibitory concentration (IC50) in [1] is 105 nM; in series [6] it was 2.67 nM.
For the molecule `C=CC(=O)Nc1cccc(-c2nc(Nc3ccc(N4CCOCC4)cc3)nc3[nH]ncc23)c1` [compound 1], the IC50 is 7 µM in series [7], 0.045 µM in [8], 0.079 µM in series [9] and over 30 µM in series [10].
Consider `C=CC(=O)Nc1cccc(-c2nc(Nc3ccc(N4CCN(C)CC4)cc3)nc3[nH]ncc23)c1` [compound 2], for which the IC50 turned out to be 13.7 µM in series [11] and 18.8 µM in [10].
As to `C=CC(=O)Nc1cccc(-c2nc(Nc3ccc(N4CCOCC4)c(F)c3)nc3[nH]ncc23)c1` [compound 3], the IC50 was found to be 0.126 µM in [8] and 0.23 µM in series [9].
`C=CC(=O)Nc1cccc(-c2nc(Cl)nc3[nH]ncc23)c1` [compound 4]: the IC50 was over 30 µM in [11], 3.77 µM in series [8], 0.263 µM in [9] and over 30 µM in series [10].
In the case of `C=CC(=O)Nc1cccc(-c2nc(Cl)ncc2Nc2ccccc2)c1` [compound 5], the IC50 in [9] worked out at 1.81 µM.
On the same count and under the same terms, then `C=CC(=O)Nc1cccc(-c2nc(Nc3ccc(N4CCOCC4)cc3)ncc2Nc2ccccc2)c1` [compound 6], with over 100 µM.
Take `C=CC(=O)Nc1cccc(-c2nc(Nc3ccc(N4CCOCC4)c(F)c3)ncc2Cl)c1` [compound 7]: the IC50 in [8] was determined as 0.287 µM; in [9], 0.518 µM.
For the molecule `C=CC(=O)Nc1cccc(-c2nc(Nc3ccc(N4CCOCC4)cc3)ncc2Cl)c1` [compound 8], the IC50 came to 22.2 µM in [7], 0.047 µM in [8], 0.033 µM in series [9] and 20.9 µM in series [10].
As for `C=CC(=O)Nc1cccc(-c2nc(Nc3ccc(N4CCN(C)CC4)cc3)ncc2Cl)c1` [compound 9], in [9], the IC50 is 1.27 µM.
Still for that read-out and setting: then `C=CC(=O)Nc1cccc(-c2nc(Cl)ncc2Br)c1` [compound 10], with 4.7 µM.
The same measure, in the same setting: for `C=CC(=O)Nc1cccc(-c2nc(Cl)ncc2Cl)c1` [compound 11] the value was 14.4 µM; for `C=CC(=O)Nc1cccc(-c2nc(Cl)ncc2Nc2cccc(F)c2)c1` [compound 12], 0.829 µM.

What is called IC50 is the concentration that inhibits the measured activity by half. The term half-life denotes the time needed for the level to fall by half in the phase considered.
